Where two headings read alike, the source gives them in different places.
How the values were obtained:
full length AR = full length AR (Homo sapiens (Human), UniProt P10275); assay: mmTV-luciferase reporter assay, full length AR in HeLa cells; assay type: cell-based
Procedure: In order to test the effect of antiandrogens on full length AR, a mmTV-luciferase reporter assay was used. An AR-response element is contained within the mmTV sequence and drives the expression of luciferase. The effect of antiandrogens (competitive antagonists) on this process is measured by quantifying the amount of luciferase activity after 24 hours in the presence of varying concentrations of antiandrogens. From these values, an IC50 for each antagonist is calculated. Experimentally, HeLa cells were maintained in Dulbecco's modified Eagle's medium H-21 4.5 g/L glucose, containing 10% steroid depleted fetal bovine serum, 50 units/mL penicillin. For transfection, (1×10^5) cells per well were plated and incubated overnight. […] Cells were induced with 1 nM DHT and 0.1 nM-30 uM compounds after 3 hrs and then incubated overnight. Cells were collected, and pellets were lysed in 100 μL of 100 mM Tris-HCl (pH 7.5) containing 0.1% Triton X-100. Luciferase and β-galactosidase activities were measured using the Luciferase Assay System (Promega) and Galacto-Light Plus-galactosidase reporter gene assay system (Applied Biosystems), according to the manufacturer's instructions.

[1] = target: AR ligand-binding domain (AR LBD) (Homo sapiens (Human), UniProt P10275); assay: Gal4-luciferase reporter assay, Gal-AR LBD in HeLa cells; assay type: cell-based
Chain of AR ligand-binding domain (AR LBD) (P10275 669-900): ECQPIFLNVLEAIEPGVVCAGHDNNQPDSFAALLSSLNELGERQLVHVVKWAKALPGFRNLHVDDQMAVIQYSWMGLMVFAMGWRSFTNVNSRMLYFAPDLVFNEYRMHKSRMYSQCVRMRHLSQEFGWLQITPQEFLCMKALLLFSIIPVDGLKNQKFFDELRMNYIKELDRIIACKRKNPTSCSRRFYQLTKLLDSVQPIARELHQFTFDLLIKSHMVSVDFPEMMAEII
Description: In order to test the effect of ligands on the AR ligand-binding domain (AR LBD), a Gal4-luciferase reporter assay was used. Briefly, the AR LBD is expressed as a fusion with the Gal4 transcription factor, which binds to the Gal4 reporter DNA. Upon activation with agonist hormone (DHT), the Gal-AR LBD binds to the Gal4 reporter gene, which in turn drives the transcription (and subsequently translation) of the reporter luciferase. The effect of antiandrogens (competitive antagonists) on this process is measured by quantifying the amount of luciferase activity after 24 hours in the presence of varying concentrations of antiandrogens. From these values, an IC50 for each antagonist is calculated. Experimentally, Hela cells were maintained in Dulbecco's modified Eagle's medium H-21 4.5 g/L glucose, containing 10% steroid depleted fetal bovine serum, 50 units/mL penicillin. For transfection, (1×10^5) cells per well were plated and incubated overnight. […] Cells were induced with 1 nM DHT and 0.1 nM-30 uM test compounds after 3 hr and then incubated over night. Cells were collected, and pellets were lysed in 100 μL of 100 mM Tris-HCl (pH 7.5) containing 0.1% Triton X-100. Luciferase and β-galactosidase activities were measured using the Luciferase Assay System (Promega) and Galacto-Light Plus-galactosidase reporter gene assay system (Applied Biosystems), according to the manufacturer's instructions.

[2] = target: endogenous full length AR (Homo sapiens (Human), UniProt P10275, T878A); assay: mmTV-luciferase reporter assay, endogenous AR in LNCaP cells; assay type: cell-based; details: 10 nM DHT, read-out: LVCaP data
Chain of endogenous full length AR (P10275 whole entry T878A): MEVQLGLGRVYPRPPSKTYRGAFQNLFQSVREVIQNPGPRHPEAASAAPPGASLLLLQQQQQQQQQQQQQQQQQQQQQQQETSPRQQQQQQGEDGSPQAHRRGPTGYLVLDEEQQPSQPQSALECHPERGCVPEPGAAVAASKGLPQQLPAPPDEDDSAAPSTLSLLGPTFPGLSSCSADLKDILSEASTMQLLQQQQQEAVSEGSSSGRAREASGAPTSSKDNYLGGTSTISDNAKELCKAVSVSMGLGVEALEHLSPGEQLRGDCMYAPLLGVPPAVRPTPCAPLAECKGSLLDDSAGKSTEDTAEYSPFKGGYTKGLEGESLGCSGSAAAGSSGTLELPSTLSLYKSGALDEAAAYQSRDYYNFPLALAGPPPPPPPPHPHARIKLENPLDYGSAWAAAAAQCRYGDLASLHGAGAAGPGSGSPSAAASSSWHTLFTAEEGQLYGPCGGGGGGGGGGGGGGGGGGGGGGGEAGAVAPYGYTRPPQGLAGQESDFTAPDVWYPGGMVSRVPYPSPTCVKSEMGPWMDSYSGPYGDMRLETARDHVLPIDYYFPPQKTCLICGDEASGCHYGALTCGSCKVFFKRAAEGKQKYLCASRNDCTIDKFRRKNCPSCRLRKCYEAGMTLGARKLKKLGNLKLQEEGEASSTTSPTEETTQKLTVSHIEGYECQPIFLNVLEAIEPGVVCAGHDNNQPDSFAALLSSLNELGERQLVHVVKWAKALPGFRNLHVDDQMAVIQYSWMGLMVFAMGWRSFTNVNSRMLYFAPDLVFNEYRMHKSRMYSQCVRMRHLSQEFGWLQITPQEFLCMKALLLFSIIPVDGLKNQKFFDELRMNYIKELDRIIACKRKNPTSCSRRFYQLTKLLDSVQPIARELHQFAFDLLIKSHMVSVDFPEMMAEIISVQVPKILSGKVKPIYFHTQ

[3] = in vivo; cited from earlier work
[4] = full length AR, mmTV-luciferase reporter, HeLa cells, 1 nM DHT, read-out: FL IC50
[5] = in relationship to the experimental casodex data
[6] = Gal-AR LBD, Gal4-luciferase reporter, HeLa cells, 1 nM DHT, read-out: LBD IC50

Chain of full length AR (P10275 other isoform, or with tags, fused parts or gaps): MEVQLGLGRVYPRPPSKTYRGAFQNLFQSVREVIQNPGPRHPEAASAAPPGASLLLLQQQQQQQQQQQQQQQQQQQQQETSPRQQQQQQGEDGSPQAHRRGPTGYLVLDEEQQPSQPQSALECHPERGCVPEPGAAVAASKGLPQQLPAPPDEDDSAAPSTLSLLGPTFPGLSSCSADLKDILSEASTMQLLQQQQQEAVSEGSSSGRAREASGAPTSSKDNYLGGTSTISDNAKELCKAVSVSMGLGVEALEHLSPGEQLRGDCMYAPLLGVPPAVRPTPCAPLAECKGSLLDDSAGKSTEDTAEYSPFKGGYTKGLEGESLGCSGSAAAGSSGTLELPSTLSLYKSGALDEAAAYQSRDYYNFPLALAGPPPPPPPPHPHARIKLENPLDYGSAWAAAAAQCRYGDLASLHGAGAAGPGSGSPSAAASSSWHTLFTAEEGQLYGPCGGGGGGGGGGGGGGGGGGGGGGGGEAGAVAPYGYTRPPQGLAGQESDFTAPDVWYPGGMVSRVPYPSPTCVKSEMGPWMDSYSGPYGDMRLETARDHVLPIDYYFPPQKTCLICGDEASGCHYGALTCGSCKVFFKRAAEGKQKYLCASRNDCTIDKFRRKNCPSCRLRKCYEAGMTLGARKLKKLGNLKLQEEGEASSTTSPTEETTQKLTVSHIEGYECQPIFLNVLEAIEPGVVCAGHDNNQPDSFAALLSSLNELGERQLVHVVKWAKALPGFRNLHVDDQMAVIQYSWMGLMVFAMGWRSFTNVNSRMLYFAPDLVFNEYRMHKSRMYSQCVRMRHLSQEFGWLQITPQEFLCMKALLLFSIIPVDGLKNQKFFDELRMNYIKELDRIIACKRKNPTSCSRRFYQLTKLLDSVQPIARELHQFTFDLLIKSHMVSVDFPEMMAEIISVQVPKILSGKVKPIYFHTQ

SMILES | IC50 [1] | IC50 (full length AR; [4]) | Fold chg (FL) (full length AR; [5]) | IC50 [1, 6] | Fold chg (LBD) [1, 5] | Fold change* ([1]; Table 4, relative to CDX) | also measured
C[C@](O)(CS(=O)(=O)c1ccc(F)cc1)C(=O)Nc1cc(C(F)(F)F)c(C#N)cn1 [FC 3.077] | 490 ± 60 nM | – | – | – | – | – | Fold chg (FL) (full length AR): 0.33; Fold change* [1]: 0.74; Fold chg (LBD) [1]: 0.74
C=CS(=O)(=O)C(c1ccc(NC(=O)[C@@](C)(O)CS(=O)(=O)c2ccc(F)cc2)cc1C(F)(F)F)S(=O)(=O)C=C [FC 4.025] | – | 1.29 ± 1.29 µM | 0.78 | 580 ± 110 nM | 0.62 | – | –
C=CC(=O)Nc1ccc(NC(=O)[C@@](C)(O)CS(=O)(=O)c2ccc(F)cc2)cc1C(F)(F)F [FC 4.039] | – | – | – | 750 ± 260 nM | 0.48 | – | –
C[C@](O)(CS(=O)(=O)c1ccc(F)cc1)C(=O)Nc1cccc(C(F)(F)F)c1 [FC 4.116] | – | 71.7 µM | 0.014 | 2530 ± 1160 nM | 0.14 | 0.14 | IC50 [2]: 530 ± 270 nM
C[C@](O)(CS(=O)(=O)c1ccc(F)cc1)C(=O)Nc1cc(C(F)(F)F)ccn1 [FC 4.125] | 22400 ± 41800 nM | – | – | – | 0.016 | 0.016 | –
C[C@](O)(CS(=O)(=O)c1ccc(F)cc1)C(=O)Nc1cncc(C(F)(F)F)c1 [FC 4.126] | – | 12.4 ± 14.2 µM | 0.08 | 1550 ± 410 nM | 0.23 | 0.23 | IC50 [2]: 110 ± 20 nM
C[C@](O)(CS(=O)(=O)c1ccc(F)cc1)C(=O)Nc1ccc([N+](=O)[O-])c(C(F)(F)F)c1 [FC 4.127] | 7260 ± 10700 nM | – | – | – | – | – | Fold chg (FL) (full length AR): 0.11; IC50 (full length AR): 8.74 ± 15.8 µM; Fold change* [1]: 0.05; Fold chg (LBD) [1]: 0.050
CC(O)(CS(=O)(=O)c1ccc(F)cc1)C(=O)Nc1ccc(C#N)c(C(F)(F)F)c1 (stereo not shown) [bicalutamide] | – | – | – | – | – | – | tolerability [3]: well tolerated with very few side effects
